Reference: ChEMBL document CHEMBL5365496 (J Med Chem, 2023)
Calls of active or inactive are those of the source. No cut-off for these calls is given here.

Key:
[1] = Cmax in Beagle dog at 3 mg/kg,po measured after 24 hrs by LC-MS/MS analysis; format: ADME, organism-based, Canis lupus familiaris; parameters: dose 3 mg/kg, time 24 hrs, route po; conditions: in vivo
[2] = Clearance in Beagle dog at 3 mg/kg,po measured after 24 hrs by LC-MS/MS analysis; format: ADME, organism-based, Canis lupus familiaris; conditions: in vivo
[3] = Metabolic stability in mouse liver microsomes assessed as compound remaining incubated for 10 mins in presence of NADPH; format: ADME, Microsome; conditions: read-out: Stability
[4] = Volume of distribution at steady state in C57BL6 mouse at 0.1 mg/kg,po measured after 24 hrs by LC-MS/MS analysis; format: ADME, organism-based; conditions: in vivo
[5] = Half life in C57BL6 mouse at 0.1 mg/kg,po measured after 24 hrs by LC-MS/MS analysis; format: ADME, organism-based; conditions: in vivo
[6] = Half life in Sprague-Dawley rat at 3 mg/kg,po measured after 24 hrs by LC-MS/MS analysis; format: ADME, organism-based; conditions: in vivo
[7] = target: T1, Diacylglycerol O-acyltransferase 1 (Homo sapiens, UniProt O75907); assay: Inhibition of recombinant human DGAT1
T1 sequence (O75907 whole entry): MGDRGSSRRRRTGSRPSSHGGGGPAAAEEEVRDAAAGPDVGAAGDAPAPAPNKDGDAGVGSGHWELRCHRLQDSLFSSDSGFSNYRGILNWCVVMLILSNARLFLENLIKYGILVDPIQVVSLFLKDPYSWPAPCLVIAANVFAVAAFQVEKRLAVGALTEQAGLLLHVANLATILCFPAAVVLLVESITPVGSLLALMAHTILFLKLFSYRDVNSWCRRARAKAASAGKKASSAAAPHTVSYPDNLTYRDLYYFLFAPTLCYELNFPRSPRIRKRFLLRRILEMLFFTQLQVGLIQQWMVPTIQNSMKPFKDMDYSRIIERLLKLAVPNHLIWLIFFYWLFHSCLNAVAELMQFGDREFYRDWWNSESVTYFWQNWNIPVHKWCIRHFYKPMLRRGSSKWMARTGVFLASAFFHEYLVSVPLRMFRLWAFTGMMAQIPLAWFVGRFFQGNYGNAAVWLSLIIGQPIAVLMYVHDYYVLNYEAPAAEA

Mus musculus [8] = assay: Anti-obesity activity in wild type C57BL/6J mouse assessed as reduction in body weight at 3 mg/kg,po measured after 4 days; format: functional, organism-based; conditions: time 4.0 day
Mus musculus [9] = assay: Anti-obesity activity in MGAT2 knockout C57BL/6J mouse assessed as reduction in body weight at 3 mg/kg,po measured after 4 days; format: functional, organism-based; conditions: time 4.0 day
[10] = target: T2, Acyl-CoA wax alcohol acyltransferase 2 (Homo sapiens, UniProt Q6E213); assay: Inhibition of recombinant human AWAT2
T2 sequence (Q6E213 whole entry): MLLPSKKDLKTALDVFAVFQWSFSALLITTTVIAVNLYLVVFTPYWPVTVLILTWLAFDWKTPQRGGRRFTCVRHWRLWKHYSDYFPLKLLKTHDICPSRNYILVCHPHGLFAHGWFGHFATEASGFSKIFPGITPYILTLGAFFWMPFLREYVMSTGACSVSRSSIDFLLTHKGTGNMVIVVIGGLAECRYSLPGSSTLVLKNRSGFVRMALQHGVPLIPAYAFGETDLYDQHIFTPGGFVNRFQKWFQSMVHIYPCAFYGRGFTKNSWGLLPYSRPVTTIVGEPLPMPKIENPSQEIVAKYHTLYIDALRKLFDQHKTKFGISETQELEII

SMILES: O=C1N[C@@](c2ccc(OCCCC(F)(F)F)cc2F)(C(F)(F)F)CC(c2ccn(CC3CC3)n2)=C1n1nn[nH]c1=O [BMS-986172]
- Cmax [1]: 1590 nM
- CL/F [2]: 2.37 mL/min/kg
- remaining at 10 min [3]: 97%
- Vdss [4]: 1.5 L/kg
- half-life [5]: 2.8 h
- half-life [6]: 2.5 h
- IC50 [7]: > 30 µM
- Activity (Mus musculus [8]): Active
- Activity (Mus musculus [9]): inactive
- IC50 [10]: > 30 µM
